Tests used:
[1] = test system: downstream components of the RAS pathway; conditions: previously shown (Cardenas 1998; Campbell 1994); cited from earlier work
mutant-RAS cell line = assay: Growth inhibition assay with parental non-GFP cell lines plated separately, PicoGreen (FIG. 6); assay type: cell-based, human; conditions: range of concentrations, five days
Method: FIG. 6. Structure/activity ratios (SAR's) of compounds with structural homology to TPT. Growth inhibition assays were performed using parental (non-GFP modified) cell lines. Cells were plated separately at low density in 96 well plates and exposed to a range of test drug concentrations for five days. Cells were then lysed in H2O, and lysates assayed for relative cell number using the dsDNA-binding dye (PicoGreen).
Secondary screens on primary screen hits were performed as above except that a drug concentration range was used, typically extending from 30 ng/ml to 4 μg/ml. […] Assays using non-GFP modified cell lines were performed using cells plated separately rather than co-cultured. Plates were harvested each day for assessment of cell number using either an MTT assay or using the DNA-binding dye PicoGreen (Molecular Probes, Eugene, Oreg.). MTT assays were performed according to the manufacturers instructions (Trevigen, Gaithersburg, Md.). PicoGreen assays were performed by lysing cells in 96-well plates in 200 μl H2O, triturating and then transferring a 10 μl aliquot from each well to […] of PigoGreen solution (# P-7581) diluted to 0.5% vol/vol in Tris-EDTA (TE) buffer.

[2] = test system: DLD-1 cells (mutant c-Ki-Ras); assay: Co-culture fluorescence growth inhibition screen, DLD-1 cells (BFP); assay type: cell-based, human
Text: (§1) FIG. 1. Schematic of drug screening format using co-cultured isogenic cells modified with spectrally distinct green fluorescent protein (GFP) variants. DLD-1 cells, harbouring a mutant c-Ki-RAS allele plus a wild-type (wt) c-Ki-RAS allele, were modified to stably express a GFP variant that is excited at 530 nm (YFP). An isogenic clone (KO) in which only the mutant c-Ki-RAS allele has been deleted (Adegboyega et al., Arch. Pathol. Lab. Med., 121:1063-68, 1997) was modified to express a GFP variant that is excited at 390 nm (BFP). These cells were mixed and plated at low density in 96-well plates. […] Plates were assayed every day for six days using a fluorescence plate reader to obtain growth curves for each cell line in every well of the plate.
(§2) FIG. 5. […] Growth curves were obtained from fluorescence at 390ex/508em (DLD-1) and 530ex/590em (KO). […]
(§3) Fluorescent cell lines were harvested by trypsinization and resuspended together as a mixture containing 22,000 cells/ml (DLD-1) and 18,000 cells/ml (KO) in DMEM media supplemented with 10% FCS (HyClone, Logan, Utah). […] Each well of column 1 contained […] of the growth medium without cells as a control for computing background fluorescence. […] Fluorometry data from each day's read were exported to a custom program (Drugmobile) for plotting the growth curves of each cell line in each well of the 96-well plate. […]

[3] = test system: KO cells (DKS-8, mutant c-Ki-Ras allele deleted); assay: Co-culture fluorescence growth inhibition screen, KO cells (YFP); assay type: cell-based, human; conditions: concentration and time course experiments, co-cultured cells (FIG. 5)
Text: as §1, §2, §3

p38 = p38 (Homo sapiens, UniProt Q16539); assay: In vitro kinase assay, p38; assay type: biochemical; conditions: in vitro kinase assays (data not shown)
Text: (§4) No anti-proliferative activity has previously been described for TPT. Tetrazole compounds such as TPT are commonly used as histological reagents that are reduced by cellular dehydrogenases in viable cells to a coloured formazan dye (Adegboyega et al., Arch. Pathol. Lab. Med., 121:1063-68, 1997, Otero et al., Cytotechnology, 6:137-42, 1991). However, no obvious staining of cells was observed using TPT at the concentrations used in the present assays. […] A previously identified inhibitor of p38 mitogen activated kinase (SB203580) (Cuenda et al., FEBS Lett., 364:229-33, 1995, Liverton et al., J. Med. Chem., 42:2180-90, 1999) was also noted to be structurally similar to TPT (FIG. 6). […] It is therefore unclear whether kinases represent cellular targets for TPT.

c-Raf-1 = c-Raf-1 (Homo sapiens, UniProt P04049); assay: In vitro kinase assay, c-Raf-1; assay type: biochemical; conditions: in vitro kinase assays (data not shown)
Text: as §4

c-Jun kinases = assay: In vitro kinase assay, c-Jun kinases; assay type: biochemical; conditions: in vitro kinase assays (data not shown)
Text: as §4

p38, sequence (Q16539 whole entry): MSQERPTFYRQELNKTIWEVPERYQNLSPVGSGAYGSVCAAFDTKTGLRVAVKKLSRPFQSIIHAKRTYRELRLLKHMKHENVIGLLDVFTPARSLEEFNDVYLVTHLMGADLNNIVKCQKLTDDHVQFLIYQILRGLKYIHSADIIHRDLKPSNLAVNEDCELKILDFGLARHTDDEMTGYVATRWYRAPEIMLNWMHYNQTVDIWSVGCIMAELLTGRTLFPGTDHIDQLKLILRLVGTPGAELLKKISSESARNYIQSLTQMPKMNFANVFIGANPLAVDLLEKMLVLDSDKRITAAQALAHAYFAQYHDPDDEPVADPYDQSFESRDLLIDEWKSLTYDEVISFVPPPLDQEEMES
c-Raf-1, sequence (P04049 whole entry): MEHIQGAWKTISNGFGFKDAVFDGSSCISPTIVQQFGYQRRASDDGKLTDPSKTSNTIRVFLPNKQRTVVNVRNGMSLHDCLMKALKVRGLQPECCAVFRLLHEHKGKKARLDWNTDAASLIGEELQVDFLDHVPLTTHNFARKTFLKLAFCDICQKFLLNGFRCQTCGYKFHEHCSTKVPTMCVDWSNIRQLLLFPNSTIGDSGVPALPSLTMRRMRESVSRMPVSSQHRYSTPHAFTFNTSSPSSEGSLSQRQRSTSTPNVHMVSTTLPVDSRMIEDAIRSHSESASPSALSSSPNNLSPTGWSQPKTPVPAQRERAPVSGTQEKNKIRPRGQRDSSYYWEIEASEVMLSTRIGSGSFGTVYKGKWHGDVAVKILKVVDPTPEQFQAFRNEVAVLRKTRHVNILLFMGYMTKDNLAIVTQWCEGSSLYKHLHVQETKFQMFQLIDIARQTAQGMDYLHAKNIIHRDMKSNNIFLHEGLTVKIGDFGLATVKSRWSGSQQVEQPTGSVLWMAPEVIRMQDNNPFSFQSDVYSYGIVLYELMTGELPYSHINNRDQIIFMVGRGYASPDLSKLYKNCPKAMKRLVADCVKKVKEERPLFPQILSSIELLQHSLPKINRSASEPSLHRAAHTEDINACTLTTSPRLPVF

Structure (SMILES): C[C@@]12c3ccc4c(c3C(=O)c3occ(c31)C(=O)C[C@H]2O)CCC4=O [demethoxyviridin]
- inhibition of downstream components of the RAS pathway [1]: inhibit downstream components of the RAS pathway

Structure (SMILES): C[S+]([O-])c1ccc(-c2nc(-c3ccncc3)c(-c3ccc(F)cc3)[nH]2)cc1 (centres unmarked) [SB203580]
- selectivity towards the mutant RAS-containing line (mutant-RAS cell line): failed to show selectivity

Structure (SMILES): c1ccc(-c2nn(-c3ccccc3)[n+](-c3ccccc3)n2)cc1 [TPT, Triphenyltetrazolium]
- selectivity for inhibiting the growth of the mutant c-Ki-RAS cell line (DLD-1) ([2]; DLD-1 versus KO): ~6 fold
- IC50 on DLD-1 ([2]; concentration and time course experiments, co-cultured cells (FIG. 5)): ~2 µg/mL
- IC50 on KO [3]: ~12 µg/mL
- inhibition of p38 (p38): little or no reproducible inhibition
- inhibition of c-Raf-1 (c-Raf-1): little or no reproducible inhibition
- inhibition of c-Jun kinases (c-Jun kinases): little or no reproducible inhibition

From patent publication US20050239051A1, “Use of isogenic human cancer cells for high-throughput screening and drug discovery” (The Johns Hopkins University, priority 2001, published 2005)
